{"source": "BindingDB's records for doi:10.1021/jm401292m", "about": "(Mcgill University, 2014)", "experiment": "Antagonist activity at OXE receptor (unknown origin) expressed in neutrophils assessed as inhibition of 5-oxo-ETE-induced cell migration after 2 hrs by hematoxylin/chromotrope 2R staining-based microscopic analysis", "data": [{"smiles": "CCCCCCc1c(C(=O)CC(C)CC(=O)O)c2cc(Cl)ccc2n1C", "note": "(stereo unspecified)", "values": [{"measurement": "IC50", "result": 454, "unit": "nM"}]}]}
